Measurements from PubChem BioAssay (NCI).
Where “and” joins values, the source holds several entries; their conditions need not be identical. Equal entries are not always repeated.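 Cells were grown in 96-well plates and exposed to each compound for 48 hours at five concentrations; endpoints were interpolated linearly between bracketing concentrations, or set to the highest concentration if not reached. The concentration for 50% growth inhibition is given as GI50. TGI: total growth inhibition.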

system: SK-OV-3 ovarian; test: inhibition of tumour cell growth, NCI panel, 48 h

| Compound | TGI | GI50 |
| --- | --- | --- |
| Cc1ccc2c(c1CCCC(C)(C)O)C(=O)C(=O)C(C(C)C)=C2O | > 100 µM |  |
| CC(=O)c1sc2c(c1OC(=O)c1cccs1)c(=O)n(-c1ccccc1)c(=S)n2-c1ccccc1 | 52 µM |  |
| C[C@]12CCC(=O)C=C1CC[C@@H]1C2CC[C@]2(C)c3nn(-c4ccc(F)cc4)nc3CC12 (some centres not stated) | > 100 µM |  |
| CN(C)C(=O)NCCN1CCCCCc2ccccc21 | > 100 µM |  |
| O=C1C(Cl)C(c2ccccc2)N1n1cnc2ccccc2c1=O (configuration not stated) | > 100 µM |  |
| CN(C)C(=O)OCOC(=O)N(C)C | > 100 µM |  |
| COC(=O)c1ccc(/C=C2\N=C(C)OC2=O)cc1 | > 100 µM |  |
| Cc1ccc2nc(-c3ccc(N)c(I)c3)sc2c1 | > 100 µM |  |
| CCOC(=O)c1nc2c(Cl)c3ncccc3cc2[nH]c1=O | > 100 µM |  |
| CCOC(=O)C1=C(Nc2cccc(OC)c2)OCC1=O | > 100 µM |  |
| O=C1NC(=O)C(CCO)(c2ccccc2)C(=O)N1 | > 100 µM |  |
| CO[C@H]1[C@@H](O)[C@@H](C)O[C@@H](O[C@H]2CC[C@@]3(C)[C@H](CC[C@@H]4[C@@H]3CC[C@]3(C)[C@@H](C5=CC(=O)OC5)[C@@H](OC(C)=O)C[C@]43O)C2)[C@@H]1O | 0.188 µM |  |
| COc1ccc2c(c1)CC[C@@H]1[C@@H]2CC[C@]2(C)C(=O)/C(=C/c3ccc(OC)c(OC)c3)C[C@@H]12 | > 100 µM |  |
| Cc1cn(C2CC(ON3C(=O)c4ccccc4C3=O)C(CO)O2)c(=O)[nH]c1=O (configuration not stated) | > 10 µM |  |
| C=CCn1c(=O)n(CC=C)c(=O)n(CC=C)c1=O | > 100 µM |  |
| CCCCN1C=CN2c3nc4cc(C)c(C)cc4n3C(C(=O)OC)=C(C(=O)OC)C12 (configuration not stated) | > 100 µM |  |
| COC(=O)C(=C/c1ccc(OC)cc1)/C(C(=O)O)=C(/C)c1ccccc1 | > 100 µM |  |
| C=C1C(=O)O[C@H]2[C@H]1[C@@H](OC(=O)C=C(C)C)CC1=C[C@@H](C[C@@]3(C)O[C@@H]23)OC1=O | 36.9 µM and 43.9 µM | 25 µM |
| CCC1c2[nH]c3ccccc3c2C[C@H]2C(=O)NC(COC(C)(C)C)C(=O)N12 (some centres not stated) | > 100 µM |  |

| Compound | TGI | GI50 |
| --- | --- | --- |
| CCOC(=O)CC1CCN(C(=O)c2ccccc2)C2Cc3c([nH]c4ccccc34)C12C[N+](=O)[O-] (configuration not stated) | > 100 µM |  |
| CC12CCC(C(=O)OC1=O)C2(C)C (configuration not stated) | > 100 µM |  |
| CCOC(=O)C(N=Nc1ccc(S(N)(=O)=O)cc1)C(C)=O (configuration not stated) | > 100 µM |  |
| C/C(=C1/CCCC2(N=NCC2c2ccccc2)C1=O)c1ccccc1 (configuration not stated) | > 100 µM |  |
| CCN1CCN(c2ccc(Nc3ccnc4ccc5nn(C)nc5c34)cc2)CC1 | 31.5 µM |  |
| CC(C)CC1[C@@H](OCc2ccccc2)COS(=O)N1Cc1ccccc1 (some centres not stated) | > 100 µM |  |
| OCC1OC(n2cnc3c2NC=NC[C@H]3O)C(O)C1O (some centres not stated) | > 450 µM |  |
| CNC(=S)N/N=C(C)\C(=N/NC(=S)NC)c1ccccc1 | > 100 µM |  |
| O=[N+]([O-])c1ccc(-n2nnc(C3=NCCCN3)c2-c2ccc(Cl)cc2)cc1 | > 100 µM |  |
| COc1cc2c(cc1OC)C(O)[C@H](Br)C(C)(C)O2 (some centres not stated) | > 100 µM |  |
| COC1=C(Br)[C@H](O)[C@@]2(C=C1Br)CC(C(=O)NCCCCCN=C(N)N)=NO2 | > 10 µM |  |
| CCCCCC(C[N+]1(C)CCOCC1)C(=O)/C=C/c1ccccc1 (configuration not stated) | > 88.6 µM |  |
| CC1(C#N)CC(C)(C)C(/C=C2/CC(C)(C)C(/C=C3/OC(=N)CC3(C)C)=N2)=N1 (configuration not stated) | 61 µM |  |
| COc1ccc(C[N+]23C(CC[C@H]2c2ccccc2)CC[C@H]3c2ccccc2)cc1 (some centres not stated) | 87.7 µM |  |
| O=C1c2cc3c(cc2CC12Cc1cc4c(cc1C2=O)CCC4)CCCC3 (configuration not stated) | > 100 µM |  |
| CCOC(=O)CC1c2ccc(O)cc2OC(=O)C1c1ccc([N+](=O)[O-])cc1 (configuration not stated) | 85.5 µM |  |
| CC(=O)OCC1OC(Nc2ncc(-c3ccc(C)cc3)s2)C(OC(C)=O)C(OC(C)=O)C1OC(C)=O (configuration not stated) | > 100 µM |  |
| CCN(CC)/C(Cl)=C(Cl)\C(=C1\Nc2ccc(OC)cc21)[N+](=O)[O-] | > 100 µM |  |

system: OVCAR-4 ovarian; test: inhibition of tumour cell growth, NCI panel, 48 h

| Compound | TGI |
| --- | --- |
| Cc1ccc2c(c1CCCC(C)(C)O)C(=O)C(=O)C(C(C)C)=C2O | > 100 µM |
| CC(=O)c1sc2c(c1OC(=O)c1cccs1)c(=O)n(-c1ccccc1)c(=S)n2-c1ccccc1 | 38.8 µM |
| C[C@]12CCC(=O)C=C1CC[C@@H]1C2CC[C@]2(C)c3nn(-c4ccc(F)cc4)nc3CC12 (some centres not stated) | > 100 µM |
| CN(C)C(=O)NCCN1CCCCCc2ccccc21 | > 100 µM |
| O=C1C(Cl)C(c2ccccc2)N1n1cnc2ccccc2c1=O (configuration not stated) | > 100 µM |
| CN(C)C(=O)OCOC(=O)N(C)C | > 100 µM |
| COC(=O)c1ccc(/C=C2\N=C(C)OC2=O)cc1 | > 100 µM |
| Cc1ccc2nc(-c3ccc(N)c(I)c3)sc2c1 | 41.9 µM |
| CCOC(=O)c1nc2c(Cl)c3ncccc3cc2[nH]c1=O | > 100 µM |
| CCOC(=O)C1=C(Nc2cccc(OC)c2)OCC1=O | > 100 µM |
| O=C1NC(=O)C(CCO)(c2ccccc2)C(=O)N1 | > 100 µM |
| CO[C@H]1[C@@H](O)[C@@H](C)O[C@@H](O[C@H]2CC[C@@]3(C)[C@H](CC[C@@H]4[C@@H]3CC[C@]3(C)[C@@H](C5=CC(=O)OC5)[C@@H](OC(C)=O)C[C@]43O)C2)[C@@H]1O | 0.127 µM |
| COc1ccc2c(c1)CC[C@@H]1[C@@H]2CC[C@]2(C)C(=O)/C(=C/c3ccc(OC)c(OC)c3)C[C@@H]12 | > 100 µM |
| Cc1cn(C2CC(ON3C(=O)c4ccccc4C3=O)C(CO)O2)c(=O)[nH]c1=O (configuration not stated) | > 10 µM |
